Data as given in US8263762B2, “Alkoxy-carbonyl-amino-alkynyl-adenosine compounds and derivatives thereof as A2AR agonists” (Dogwood Pharmaceuticals, Inc., priority 2009, dated 2012).

Columns and labels:
human neutrophils = assay: Neutrophil oxidative activity (luminol enhanced chemiluminescence); format: cell-based; conditions: oxidative activity assay, purified human neutrophils, fMLP-stimulated chemiluminescence, read-out: Functional Activity
Description: Chemiluminescence Methods: Luminol enhanced chemiluminescence, a measure of neutrophil oxidative activity, is dependent upon both superoxide production and mobilization of the granule enzyme myeloperoxidase. The light is emitted from unstable high-energy oxygen species such as hypochlorous acid and singlet oxygen generated by activated neutrophils.
Purified human neutrophils (2×10^6/ml) suspended in Hanks balanced salt solution containing 0.1% human serum albumin (HA), adenosine deaminase (1 U/mL) and rolipram (100 nM) were incubated (37 C) in a water bath for 15 min with or without rhTNF (10 U/ml). Following incubation 100 µL aliquots of the PMN were transferred to wells (White walled clear bottom 96 well tissue culture plates Costar #3670; 2 wells/condition) containing […] and luminol (final concentration […]) with or without adenosine agonist (final agonist concentrations 0.01-1000 nM). The plate was incubated 5 min (37 C) and then fMLP (50 l in HA; final concentration […]) was added to all wells.
Peak chemiluminescence was determined with a Victor 1420 Multilabel Counter in the chemiluminescence mode using the Wallac Workstation software. Data are presented as peak chemiluminescence as percent of activity in the absence of an adenosine agonist. The EC50 was determined using PRISM software. All compounds were tested with PMNs from three separate donors.
Effect of A2A Agonists on Neutrophil Oxidative Activity: f-met-leu-phe (fMLP), luminol, superoxide dismutase, cytochrome C, fibrinogen, adenosine deaminase, and trypan blue were obtained from Sigma Chemical. Ficoll-hypaque was purchased from ICN (Aurora, Ohio), and Cardinal Scientific (Santa Fe, N. Mex.) and Accurate Chemicals and Scientific (Westerbury, N.Y.). Endotoxin (lipopolysaccharide; E. coli K235) was from List Biologicals (Campbell, Calif.). Hanks balanced salt solution (HBSS), and limulus amebocyte lysate assay kit were from BioWittaker (Walkersville, Md.). Human serum albumin (HSA) was from Cutter Biological (Elkhart, Ind.). Recombinant human tumor necrosis factor-α was supplied by Dianippon Pharmaceutical Co. Ltd. (Osaka, Japan). ZM241385 (4-(2-[7-amino-2-(2-furyl)[1,2,4]triazolo[2,3-a][1,3,5]triazin-5-yl amino]ethyl)phenol) was a gift from Simon Poucher, Zeneca Pharmaceuticals, Cheshire, UK. Stock solutions (1 mM and 10 mM in DMSO) were made and stored at −20° C.
Human neutrophil preparation: Purified neutrophils (98% neutrophils and >95% viable by trypan blue exclusion) containing <1 platelet per 5 neutrophils and <50 pg/ml endotoxin (limulus amebocyte lysate assay) were obtained from normal heparinized (10 U/ml) venous blood by a one step Ficoll-hypaque separation procedure (A. Ferrante et al., J. Immunol. Meth., 36, 109 (1980)). […]

[1] = target: T1, recombinant human A2A receptors (Homo sapiens, UniProt P29274); assay: Radioligand binding assay, A2A receptor; conditions: recombinant human A2A receptors in Sf9 cell membranes; competition binding
T1 construct: made in house; host or cells: Sf9 insect cells, viral (baculovirus) infection; membranes
T1 sequence (P29274 whole entry): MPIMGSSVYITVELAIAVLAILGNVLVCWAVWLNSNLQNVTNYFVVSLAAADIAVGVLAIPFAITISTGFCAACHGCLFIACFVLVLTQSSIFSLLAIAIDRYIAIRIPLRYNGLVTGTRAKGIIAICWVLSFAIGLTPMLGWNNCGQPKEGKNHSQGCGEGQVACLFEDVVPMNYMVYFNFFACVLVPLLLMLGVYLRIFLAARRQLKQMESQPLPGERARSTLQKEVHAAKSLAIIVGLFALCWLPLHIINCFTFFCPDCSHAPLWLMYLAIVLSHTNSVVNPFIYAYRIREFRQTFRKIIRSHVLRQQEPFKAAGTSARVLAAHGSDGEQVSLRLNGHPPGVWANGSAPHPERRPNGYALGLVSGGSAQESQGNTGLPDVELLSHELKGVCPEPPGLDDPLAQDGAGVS
Experimental: Cell culture and membrane preparation. Sf9 cells were cultured in Grace's medium supplemented with 10% fetal bovine serum, 2.5 μg/ml amphotericin B and 50 μg/ml gentamycin in an atmosphere of 50% N2/50% O2. Viral infection was performed at a density of 2.5×10^6 cells/mL with a multiplicity of infection of two for each virus used. Infected cells were harvested 3 days post-infection and washed twice in insect PBS (PBS pH 6.3). Cells were then resuspended in lysis buffer (20 mM HEPES pH 7.5, 150 mM NaCl, 3 mM MgCl2, 1 mM β-mercaptoethanol (BME), 5 μg/mL leupeptin, 5 μg/mL pepstatin A, 1 μg/mL aprotinin, and 0.1 mM PMSF) and snap frozen for storage at −80° C. Cells were thawed on ice, brought to 30 mL total volume in lysis buffer, and burst by N2 cavitation (600 psi for 20 minutes). A low-speed centrifugation was performed to remove any unlysed cells (1000×g for 10 minutes), followed by a high-speed centrifugation (17,000×g for 30 minutes). The pellet from the final centrifugation was homogenized in buffer containing 20 mM HEPES pH 8, 100 mM NaCl, 1% glycerol, 2 μg/mL leupeptin, 2 μg/mL pepstatin A, 2 μg/mL Aprotinin, 0.1 mM PMSF, and 10 μM GDP using a small glass homogenizer followed by passage through a 26 gauge needle. Membranes were aliquoted, snap frozen in liquid N2, and stored at −80° C. Membranes from cells stably expressing the human A1 AR(CHO K1 cells) or A3 AR (HEK 293 cells) were prepared as described (Robeva et al., 1996).
Radioligand Binding Assays. Radioligand binding to recombinant human A2A receptors in Sf9 cell membranes was performed using either the radiolabeled agonist, ^125I-APE (Luthin et al., 1995) or the radiolabeled antagonist, ^125I-ZM241385 (^125I-ZM). To detect the high affinity, GTPγS-sensitive state of A1 and A3 AR, we used the agonist, ^125I-ABA (Linden et al., 1985; Linden et al., 1993). Binding experiments were performed in triplicate with 5 μg (A2A) or 25 μg (A1 and A3) membrane protein in a total volume of 0.1 mL HE buffer (20 mM HEPES and 1 mM EDTA) withl U/mL adenosine deaminase and 5 mM MgCl2 with or without 50 μM GTPγS. Membranes were incubated with radioligands at room temperature for three hours (for agonists) or two hours (for antagonists) in Millipore Multiscreen® 96-well GF/C filter plates and assays were terminated by rapid filtration on a cell harvester (Brandel, Gaithersburg, Md.) followed by 4×150 μL washes over 30 seconds with ice cold 10 mM Tris-HCl, pH 7.4, 10 mM MgCl2. Nonspecific binding was measured in the presence of 50 μM NECA. Competition binding assays were performed as described (Robeva et al., 1996) using 0.5-1 nM ^125I-APE, ^125I-ZM241385, or ^125I-ABA. Sometimes it is important to change pipette tips following each serial dilution to prevent transfer on tips of potent hydrophobic compounds. The Ki values for competing compound binding to a single site were derived from IC50 values with correction for radioligand and competing compound depletion as described previously (Linden, 1982). • Linden J (1982) Calculating the Dissociation Constant of an Unlabeled Compound From the Concentration Required to Displace Radiolabel Binding by 50%. J Cycl Nucl Res 8: 163-172. • Linden J, Patel A and Sadek S (1985) [^125I]Aminobenzyladenosine, a New Radioligand With Improved Specific Binding to Adenosine Receptors in Heart. Circ Res 56: 279-284. • Linden J, Taylor H E, Robeva A S, Tucker A L, Stehle J H, Rivkees S A, Fink J S and Reppert S M (1993) Molecular Cloning and Functional Expression of a Sheep A3 Adenosine Receptor with Widespread Tissue Distribution. Mol Pharmacol 44: 524-532. • Luthin D R, Olsson R A, Thompson R D, Sawmiller D R and Linden J (1995) Characterization of Two Affinity States of Adenosine A2A Receptors With a New Radioligand, 2-[2-(4-Amino-3-[^125I]Iodophenyl)Ethylamino] Adenosine. Mol Pharmacol 47: 307-313. • Robeva A S, Woodard R, Luthin D R, Taylor H E and Linden J (1996) Double Tagging Recombinant A1- and A2A-Adenosine Receptors With Hexahistidine and the FLAG Epitope. […]

Compound	EC50 (human neutrophils) [nM]	Ki [1] [nM]
COC(=O)N(C)CC#Cc1nc(N)c2ncn([C@@H]3O[C@H](C(=O)NC4CC4)C(O)C3O)c2n1 (some centres unmarked) [Example 1, N-Cyclopropyl 2-{3-[methoxycarbonyl(methyl)amino]propyn-1-yl}adenosine-5′-uronamide]	< 10	< 10
CN(CC#Cc1nc(N)c2ncn([C@@H]3O[C@H](C(=O)NC4CC4)C(O)C3O)c2n1)C(=O)Oc1ccccc1 (some centres unmarked) [Example 2, N-Cyclopropyl 2-{3-[phenoxycarbonyl(methyl)amino]propyn-1-yl}adenosine-5′-uronamide]	< 10	< 10
CN(CC#Cc1nc(N)c2ncn([C@@H]3O[C@H](C(=O)NC4CC4)C(O)C3O)c2n1)C(=O)OCCOCc1ccccc1 (some centres unmarked) [Example 3, N-Cyclopropyl 2-{3-[2-((benzyloxy)ethoxycarbonyl)(methyl)amino]propyn-1-yl}adenosine-5′-uronamide]	< 10	< 10
CN(CC#Cc1nc(N)c2ncn([C@@H]3O[C@H](C(=O)NC4CC4)C(O)C3O)c2n1)C(=O)Oc1ccc(F)cc1 (some centres unmarked) [Example 4, N-Cyclopropyl 2-{3-[4-fluorophenoxycarbonyl(methyl)amino]propyn-1-yl}adenosine-5′-uronamide]	< 10	11 to 100
CCN(CC#Cc1nc(N)c2ncn([C@@H]3O[C@H](C(=O)NC4CC4)C(O)C3O)c2n1)C(=O)OC (some centres unmarked) [Example 6, N-Cyclopropyl 2-{3-[4-(ethyl(methoxycarbonyl)amino)]propyn-1-yl}adenosine-5′-uronamide]	< 10	< 10
CCCN(CC#Cc1nc(N)c2ncn([C@@H]3O[C@H](C(=O)NC4CC4)C(O)C3O)c2n1)C(=O)OC (some centres unmarked) [Example 7, N-Cyclopropyl 2-{3-[4-(methoxycarbonyl(propyl)amino)]propyn-1-yl}adenosine-5′-uronamide]	< 10	< 10
COC(=O)N(CC#Cc1nc(N)c2ncn([C@@H]3O[C@H](C(=O)NC4CC4)C(O)C3O)c2n1)C(C)C (some centres unmarked) [Example 8, N-Cyclopropyl 2-{3-[4-(isopropyl(methoxycarbonyl)amino)]propyn-1-yl}adenosine-5′-uronamide]	< 10	< 10
COC(=O)N(CC#Cc1nc(N)c2ncn([C@@H]3O[C@H](C(=O)NC4CC4)C(O)C3O)c2n1)CC(C)C (some centres unmarked) [Example 9, N-Cyclopropyl 2-{3-[4-(isobutyl(methoxycarbonyl)amino)]propyn-1-yl}adenosine-5′-uronamide]	< 10	< 10
COC(=O)N(CC#Cc1nc(N)c2ncn([C@@H]3O[C@H](C(=O)NC4CC4)C(O)C3O)c2n1)Cc1ccccc1 (some centres unmarked) [Example 10, N-Cyclopropyl 2-{3-[4-(benzyl(methoxycarbonyl)amino)]propyn-1-yl}adenosine-5′-uronamide]	> 100	11 to 100

Other lines, results leading:

EC50 (human neutrophils) [nM]	Ki [1] [nM]	Compound
< 10	< 10	COC(=O)N(CC#Cc1nc(N)c2ncn([C@@H]3O[C@H](C(=O)NC4CC4)C(O)C3O)c2n1)C1CC1 (some centres unmarked) [Example 11, N-Cyclopropyl 2-{3-[4-(cyclopropyl(methoxycarbonyl)amino)]propyn-1-yl}adenosine-5′-uronamide]
< 10	< 10	COC(=O)N(CC#Cc1nc(N)c2ncn([C@@H]3O[C@H](C(=O)NC4CC4)C(O)C3O)c2n1)CC1CC1 (some centres unmarked) [Example 12, N-Cyclopropyl 2-{3-[4-(cyclopropylmethyl(methoxycarbonyl)amino)]propyn-1-yl}adenosine-5′-uronamide]
< 10	11 to 100	COC(=O)N(CC#Cc1nc(N)c2ncn([C@@H]3O[C@H](C(=O)NC4CC4)C(O)C3O)c2n1)C1CCC1 (some centres unmarked) [Example 13, N-Cyclopropyl 2-{3-[4-(cyclobutyl(methoxycarbonyl)amino)]propyn-1-yl}adenosine-5′-uronamide]
< 10	< 10	COC(=O)N(CC#Cc1nc(N)c2ncn([C@@H]3O[C@H](C(=O)NC4CC4)C(O)C3O)c2n1)C1CCCC1 (some centres unmarked) [Example 14, N-Cyclopropyl 2-{3-[4-(cyclopentyl(methoxycarbonyl)amino)]propyn-1-yl}adenosine-5′-uronamide]
< 10	< 10	COCCN(CC#Cc1nc(N)c2ncn([C@@H]3O[C@H](C(=O)NC4CC4)C(O)C3O)c2n1)C(=O)OC (some centres unmarked) [Example 15, N-Cyclopropyl 2-{3-[4-(methoxycarbonyl(2-methoxyethyl)amino)]propyn-1-yl}adenosine-5′-uronamide]
< 10	11 to 100	COCCCN(CC#Cc1nc(N)c2ncn([C@@H]3O[C@H](C(=O)NC4CC4)C(O)C3O)c2n1)C(=O)OC (some centres unmarked) [Example 16, N-Cyclopropyl 2-{3-[4-(methoxycarbonyl(3-methoxypropyl)amino)]propyn-1-yl}adenosine-5′-uronamide]
> 100	11 to 100	CCOCCCN(CC#Cc1nc(N)c2ncn([C@@H]3O[C@H](C(=O)NC4CC4)C(O)C3O)c2n1)C(=O)OC (some centres unmarked) [Example 17, N-Cyclopropyl 2-{3-[4-((3-ethoxypropyl)(methoxycarbonyl)amino)]propyn-1-yl}adenosine-5′-uronamide]
